In general, IC50 refers to the concentration at which inhibition is half-maximal.
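Note: Read-out is the quantity of phosphorylated substrate product formed, and IC50 reflects inhibition of Btk kinase activity.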

For one assay, the target named is T1, human recombinant Btk (Homo sapiens (Human), UniProt Q06187).
T1 sequence (Q06187 whole entry): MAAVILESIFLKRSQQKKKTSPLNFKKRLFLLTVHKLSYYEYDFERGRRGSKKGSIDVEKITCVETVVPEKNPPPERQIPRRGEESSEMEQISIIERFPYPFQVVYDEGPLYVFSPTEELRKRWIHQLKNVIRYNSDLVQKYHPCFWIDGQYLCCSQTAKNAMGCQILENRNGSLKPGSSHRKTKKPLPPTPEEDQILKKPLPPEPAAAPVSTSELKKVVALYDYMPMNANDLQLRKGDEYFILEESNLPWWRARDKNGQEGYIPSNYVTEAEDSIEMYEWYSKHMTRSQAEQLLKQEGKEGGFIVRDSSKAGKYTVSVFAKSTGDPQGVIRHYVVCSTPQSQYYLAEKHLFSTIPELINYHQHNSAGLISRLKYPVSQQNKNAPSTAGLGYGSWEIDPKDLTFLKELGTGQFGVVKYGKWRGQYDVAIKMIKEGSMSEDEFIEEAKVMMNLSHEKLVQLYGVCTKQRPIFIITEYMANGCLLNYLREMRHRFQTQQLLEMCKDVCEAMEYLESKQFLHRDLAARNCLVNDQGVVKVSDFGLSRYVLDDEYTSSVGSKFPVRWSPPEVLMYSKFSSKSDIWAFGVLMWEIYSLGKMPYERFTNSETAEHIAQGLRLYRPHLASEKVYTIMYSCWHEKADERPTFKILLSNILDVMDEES
Assay: not given
Conditions: Caliper-based kinase assay; human recombinant Btk 2 nM, ATP 40 μM, peptide substrate 1 μM, room temperature 3 h.
Regarding `CC1(C=C(C#N)C(=O)N2CCC[C@H]2Cn2nc(-c3ccc(Oc4ccccc4)cc3F)c3c(N)ncnc32)COC1` [Example 197B], the IC50 amounted to 32.5 nM. Same read-out and setting: for `CCOC(C)(C)C=C(C#N)C(=O)N1CCC[C@@H](n2nc(-c3ccc(Oc4cccc(F)c4F)cc3F)c3c(N)ncnc32)C1` [Example 156A, (R)-2-(3-(4-amino-3-(4-(2,3-difluorophenoxy)-2-fluorophenyl)-1H-pyrazolo[3,4-d]pyrimidin-1-yl)piperidine-1-carbonyl)-4-ethoxy-4-methylpent-2-enenitrile] the value was 7.3 nM. Take `CC(C)(C)C=C(C#N)C(=O)NC1CCC(n2nc(-c3ccc(NC(=O)c4ccc(C(F)(F)F)cc4)cc3)c3c(N)ncnc32)CC1` (centres unmarked) [8 (Cpd Table 2), N-(4-(4-amino-1-((1r,4r)-4-(2-cyano-4,4-dimethylpent-2-enamido)cyclohexyl)-1H-pyrazolo[3,4-d]pyrimidin-3-yl)phenyl)-4-(trifluoromethyl)benzamide]: the IC50 was above 1000 nM.

Consider `CC(C)(C=C(C#N)C(=O)N1CCC[C@@H](n2nc(-c3ccc(Oc4cccc(F)c4F)cc3F)c3c(N)ncnc32)C1)N1CCOCC1` [Example 162A, (R)-2-(3-(4-amino-3-(4-(2,3-difluorophenoxy)-2-fluorophenyl)-1H-pyrazolo[3,4-d]pyrimidin-1-yl)piperidine-1-carbonyl)-4-methyl-4-morpholinopent-2-enenitrile], for which the IC50 came to 0.9 nM. On the same count and under the same terms, for `CC(C)(C)C=C(C#N)C(=O)N1CCC[C@@H]1Cn1cc(-c2ccc(Oc3cccc(F)c3F)cc2)c2c(N)ncnc21` [Example 173B] the value was 34 nM; for `CC(C)(N)C=C(C#N)C(=O)N1CCC[C@H]1Cn1nc(-c2ccc(Oc3cccc(F)c3)cc2F)c2c(N)ncnc21` [Example 72B, (S)-4-amino-2-(2-((4-amino-3-(2-fluoro-4-(3-fluorophenoxy)phenyl)-1H-pyrazolo[3,4-d]pyrimidin-1-yl)methyl)pyrrolidine-1-carbonyl)-4-methylpent-2-enenitrile], 28 nM. On to `CC(C)(C)C=C(C#N)C(=O)NC1CCC(n2nc(-c3ccc(NC(=O)c4ccc(C(F)(F)F)cc4)cc3)c3c(N)ncnc32)CC1` (centres unmarked) [10 (Cpd Table 2), N-(4-(4-amino-1-((1s,4s)-4-(2-cyano-4,4-dimethylpent-2-enamido)cyclohexyl)-1H-pyrazolo[3,4-d]pyrimidin-3-yl)phenyl)-4-(trifluoromethyl)benzamide], for which the IC50 was above 1000 nM. Still for that read-out and setting: in the case of `CC(C)(CNC(=O)C(C#N)=CC1CC1)Cn1nc(-c2ccc(Oc3ccccc3)cc2)c2c(N)ncnc21` [Example 67, N-(3-(4-amino-3-(4-phenoxyphenyl)-1H-pyrazolo[3,4-d]pyrimidin-1-yl)-2,2-dimethylpropyl)-2-cyano-3-cyclopropylacrylamide] it was 27 nM; in that of `N#CC(=CC1CC1)C(=O)N1CCC[C@@H]1Cn1nc(-c2ccc(Oc3cccc(F)c3)cc2)c2c(N)ncnc21` [Example 24A, (R)-2-(2-((4-amino-3-(4-(3-fluorophenoxy)phenyl)-1H-pyrazolo[3,4-d]pyrimidin-1-yl)methyl)pyrrolidine-1-carbonyl)-3-cyclopropylacrylonitrile], 6.2 nM. On the same count and under the same terms, in the case of `CCNC(C)(C)C=C(C#N)C(=O)N1CCCC1Cn1nc(-c2ccc(Oc3ccccc3)cc2F)c2c(N)ncnc21` (stereo in doubt) [Example 85A, (S)-2-(2-((4-amino-3-(2-fluoro-4-phenoxyphenyl)-1H-pyrazolo[3,4-d]pyrimidin-1-yl)methyl)pyrrolidine-1-carbonyl)-4-(ethylamino)-4-methylpent-2-enenitrile] it was 0.4 nM; in that of `N#CC(=CC1CC1)C(=O)N1CCC[C@H]1Cn1cc(-c2ccc(Oc3ccccc3)cc2F)c2c(N)ncnc21` [Example 59B, (S)-2-(2-((4-amino-5-(2-fluoro-4-phenoxyphenyl)-7H-pyrrolo[2,3-d]pyrimidin-7-yl)methyl)pyrrolidine-1-carbonyl)-3-cyclopropylacrylonitrile], 26 nM; in that of `N#CC(=CC1CC1)C(=O)N1CCCC1Cn1nc(-c2ccc(Oc3ccccc3)cc2)c2c(N)ncnc21` (centres unmarked) [Example 22B], 2.6 nM. Still for that read-out and setting: in the case of `NC(=O)C(=CC1CC1)C(=O)N1CCC[C@@H](n2nc(-c3ccc(Oc4c(F)cccc4F)cc3)c3c(N)ncnc32)C1` [Example 36A, (R)-2-(3-(4-amino-3-(4-(2,6-difluorophenoxy)phenyl)-1H-pyrazolo[3,4-d]pyrimidin-1-yl)piperidine-1-carbonyl)-3 cyclopropylacrylamide] it was 4.3 nM. On to `CCNC(C)(C)C=C(C#N)C(=O)N1CCCC1Cn1nc(-c2ccc(Oc3ccccc3)cc2F)c2c(N)ncnc21` (stereo in doubt) [Example 85B, (R)-2-(2-((4-amino-3-(2-fluoro-4-phenoxyphenyl)-1H-pyrazolo[3,4-d]pyrimidin-1-yl)methyl)pyrrolidine-1-carbonyl)-4-(ethylamino)-4-methylpent-2-enenitrile], for which the IC50 amounted to 17.2 nM. Still for that read-out and setting: for `NC(=O)C(=CC1CC1)C(=O)N1CCC[C@@H](n2nc(-c3ccc(Oc4cccc(F)c4)cc3)c3c(N)ncnc32)C1` [Example 15A, (R)-2-(3-(4-amino-3-(4-(3-fluorophenoxy)phenyl)-1H-pyrazolo[3,4-d]pyrimidin-1-yl)piperidine-1-carbonyl)-3-cyclopropylacrylamide] the value was 1.7 nM.

In a further assay the target is T1, human recombinant Btk. Kind of assay: biochemical.
Settings: not given
For the compound `C[C@@H](Cn1nc(-c2ccc(Oc3ccccc3)cc2F)c2c(N)ncnc21)NC(=O)C(C#N)=CC(C)(C)N(C)C` [Example 185B, (S)-N-(1-(4-amino-3-(2-fluoro-4-phenoxyphenyl)-1H-pyrazolo[3,4-d]pyrimidin-1-yl)propan-2-yl)-2-cyano-4-(dimethylamino)-4-methylpent-2-enamide], the IC50 was found to be 11 nM. Take `N#CC(=CC1CC1)C(=O)N1CCC[C@@H]1Cn1nc(-c2ccc(Oc3cc(F)cc(F)c3)cc2)c2c(N)ncnc21` [Example 25A, (R)-2-(2-((4-amino-3-(4-(3,5-difluorophenoxy)phenyl)-1H-pyrazolo[3,4-d]pyrimidin-1-yl)methyl)pyrrolidine-1-carbonyl)-3-cyclopropylacrylonitrile]: the IC50 was 9.6 nM. Still for that read-out and setting: in the case of `CC(C)C=C(C#N)C(=O)N1CCC[C@H]1Cn1nc(-c2ccc(Oc3cccc(F)c3F)cc2)c2c(N)ncnc21` [Example 76B, (S)-2-(2-((4-amino-3-(4-(2,3-difluorophenoxy)phenyl)-1H-pyrazolo[3,4-d]pyrimidin-1-yl)methyl)pyrrolidine-1-carbonyl)-4-methylpent-2-enenitrile] it was 7 nM; in that of `CC(C)(C)C=C(C#N)C(=O)N1CCC[C@@H](n2nc(-c3ccc(Oc4ccccc4)cc3)c3c(N)ncnc32)C1` [29 A, (R)-2-(3-(4-amino-3-(4-phenoxyphenyl)-1H-pyrazolo[3,4-d]pyrimidin-1-yl)piperidine-1-carbonyl)-4,4-dimethylpent-2-enenitrile], 2.7 nM; in that of `N#CC(=CC1CC1)C(=O)N1CCC[C@@H]1Cn1nc(-c2ccc(Oc3cc(F)cc(F)c3)cc2F)c2c(N)ncnc21` [Example 41A, (R)-2-(2-((4-amino-3-(2-fluoro-4-(3,5-difluorophenoxy)phenyl)-1H-pyrazolo[3,4-d]pyrimidin-1-yl)methyl)pyrrolidine-1-carbonyl)-3-cyclopropylacrylonitrile], 3.2 nM.
